The source made the active and inactive calls.
Key:
[1] = target: Mitogen-activated protein kinase 10 (Homo sapiens, UniProt P53779); assay: Dose response biochemical screening assay for inhibitors of c-Jun N-Terminal Kinase 3 (JNK3). [Related pubchem assays: 746 ]
[2] = cells
[3] = target: T1, Oxysterols receptor LXR-beta (Homo sapiens, UniProt P55055); type: functional, cell-based;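 note: Cell-based luminescence dose-response assay of agonist activity at LXR, run as a confirmatory counterscreen to a daf-12 agonist screen; HEK293 cells with Gal4-LXR fusion and GAL4-driven luciferase reporter; agonist potency from rising luciferase signal of a Gal4-LXR reporter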
T1 sequence (P55055 whole entry): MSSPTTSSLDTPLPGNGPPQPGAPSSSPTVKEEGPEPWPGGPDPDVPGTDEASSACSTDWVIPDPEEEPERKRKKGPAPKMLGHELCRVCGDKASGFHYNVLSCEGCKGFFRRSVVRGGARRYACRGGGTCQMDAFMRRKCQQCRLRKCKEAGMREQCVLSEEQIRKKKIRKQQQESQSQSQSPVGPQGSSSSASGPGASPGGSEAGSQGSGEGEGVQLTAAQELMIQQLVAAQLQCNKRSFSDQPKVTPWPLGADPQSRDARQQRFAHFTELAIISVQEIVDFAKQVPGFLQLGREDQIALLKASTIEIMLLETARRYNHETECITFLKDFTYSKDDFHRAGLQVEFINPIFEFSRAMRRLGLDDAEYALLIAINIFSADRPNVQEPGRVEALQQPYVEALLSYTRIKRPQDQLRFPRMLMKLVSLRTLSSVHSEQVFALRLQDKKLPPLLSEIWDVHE

[4] = target: Cytochrome P450 2C9 (Homo sapiens, UniProt P11712)
[5] = target: Cytochrome P450 2C19 (Homo sapiens, UniProt P33261); assay: Cytochrome panel assay with activity outcomes. Panel member name: p450-cyp2c19 Compounds with AC50 equal or less than 10 uM are considered active; type: functional; conditions: read-out: AC50
[6] = target: Cytochrome P450 3A4 (Homo sapiens, UniProt P08684);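 note: CYP3A4 tested as one member of a cytochrome P450 panel screen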
[7] = target: T2, Cytochrome P450 1A2 (Homo sapiens, UniProt P05177);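 note: PubChem cytochrome P450 panel assay, CYP1A2 panel member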
T2 sequence (P05177 whole entry): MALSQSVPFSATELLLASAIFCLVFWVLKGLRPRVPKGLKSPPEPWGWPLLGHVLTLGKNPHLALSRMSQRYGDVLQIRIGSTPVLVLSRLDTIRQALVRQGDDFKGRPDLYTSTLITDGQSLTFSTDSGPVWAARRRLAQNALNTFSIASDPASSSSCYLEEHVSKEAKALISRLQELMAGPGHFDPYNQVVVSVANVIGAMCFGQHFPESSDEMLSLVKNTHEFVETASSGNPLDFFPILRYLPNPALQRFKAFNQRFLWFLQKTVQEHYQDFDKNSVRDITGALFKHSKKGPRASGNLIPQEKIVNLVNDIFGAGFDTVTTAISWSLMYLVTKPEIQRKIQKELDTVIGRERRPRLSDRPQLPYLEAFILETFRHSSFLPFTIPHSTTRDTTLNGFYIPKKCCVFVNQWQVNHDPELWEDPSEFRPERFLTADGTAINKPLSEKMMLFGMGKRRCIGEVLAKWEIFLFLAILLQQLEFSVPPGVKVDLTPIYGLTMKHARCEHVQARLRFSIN

[8] = target: fMet-Leu-Phe receptor (Homo sapiens, UniProt P21462); assay: FPR ligands, dose response (AID 519); type: functional
[9] = target: RNA-editing ligase 1, mitochondrial (Trypanosoma brucei brucei, UniProt P86926); assay: TbREL1 ligase inhibitors, dose response, biochemical, fluorescence, Trypanosoma brucei (AID 1117295); type: functional
[10] = target: Genome polyprotein (Hepatitis C virus, UniProt Q2Q167); assay: HCV core protein dimerization inhibitors, dose response, biochemical, TR-FRET (AID 2159); parameters: species or system Hepacivirus hominis;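 note: blocks dimerization of HCV core protein measured by TR-FRET between tagged core106 pairs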
[11] = target: Kallikrein-7 (Homo sapiens, UniProt P49862); assay: Fluorescence Intensity-based biochemical primary high throughput dose response assay to identify activators of kallikrein-7 (K7) zymogen.
[12] = inhibitors of PGC1a acetylation in cells, dose response, cell-based, cherry-picked samples (AID 720514); type: functional;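 note: potency may reflect raised or lowered acetylation signal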
[13] = target: T3, Protein skinhead-1 (Caenorhabditis elegans, UniProt P34707); type: functional
T3 sequence (P34707 whole entry): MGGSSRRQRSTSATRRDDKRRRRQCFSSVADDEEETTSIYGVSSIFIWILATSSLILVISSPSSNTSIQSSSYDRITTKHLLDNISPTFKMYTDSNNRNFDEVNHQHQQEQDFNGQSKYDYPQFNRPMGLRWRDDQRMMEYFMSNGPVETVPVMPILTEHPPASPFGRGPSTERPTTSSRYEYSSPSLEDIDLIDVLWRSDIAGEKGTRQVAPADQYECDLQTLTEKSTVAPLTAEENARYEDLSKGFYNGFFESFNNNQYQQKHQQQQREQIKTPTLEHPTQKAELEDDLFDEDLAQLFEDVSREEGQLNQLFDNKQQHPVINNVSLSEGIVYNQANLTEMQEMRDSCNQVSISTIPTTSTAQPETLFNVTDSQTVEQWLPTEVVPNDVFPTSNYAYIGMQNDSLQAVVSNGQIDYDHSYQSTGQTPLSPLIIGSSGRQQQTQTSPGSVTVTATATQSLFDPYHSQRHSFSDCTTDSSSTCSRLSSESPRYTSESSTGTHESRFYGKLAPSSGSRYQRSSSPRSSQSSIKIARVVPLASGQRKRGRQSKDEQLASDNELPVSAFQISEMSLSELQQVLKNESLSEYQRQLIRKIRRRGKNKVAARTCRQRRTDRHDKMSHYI

[14] = target: Long-chain-fatty-acid--AMP ligase FadD28 (Mycobacterium tuberculosis, UniProt P9WQ59); assay: Fluorescence polarization aasay to screen for inhibitors that compete for the binding of FadD28 to a bisubstrate Measured in Biochemical System Using Plate Reader - 2147-01_Inhibitor_Dose_CherryPick_Activity.; type: functional, Mycobacterium tuberculosis H37Rv
[15] = target: Luciferin 4-monooxygenase (Photinus pyralis, UniProt P08659); assay: firefly luciferase enzyme inhibitors, dose response, biochemical, luminescence (AID 1891)
[16] = target: T4, Mannose-6-phosphate isomerase (Homo sapiens, UniProt P34949); assay: human PMI inhibitors, high substrate, primary screen, biochemical, fluorescence intensity, high mannose 6-phosphate (AID 1220)
T4 sequence (P34949 whole entry): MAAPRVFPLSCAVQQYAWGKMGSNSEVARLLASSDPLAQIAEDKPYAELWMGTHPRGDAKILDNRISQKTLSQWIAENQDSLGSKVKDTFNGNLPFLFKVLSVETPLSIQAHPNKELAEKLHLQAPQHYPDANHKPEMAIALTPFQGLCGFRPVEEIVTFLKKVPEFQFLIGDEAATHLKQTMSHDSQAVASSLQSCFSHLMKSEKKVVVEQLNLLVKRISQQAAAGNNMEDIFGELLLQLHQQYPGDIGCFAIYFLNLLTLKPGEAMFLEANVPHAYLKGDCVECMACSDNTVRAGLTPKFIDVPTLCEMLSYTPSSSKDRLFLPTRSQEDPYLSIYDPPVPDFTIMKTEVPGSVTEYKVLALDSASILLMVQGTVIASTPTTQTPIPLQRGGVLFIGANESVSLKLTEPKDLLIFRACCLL

[17] = Luminescence Cell-Based Dose Confirmation HTS to Identify Inhibitors of Platelet Dense Granule Release. [Related pubchem assays: 1663 (Primary HTS), 1678 (Summary of Project)]; type: functional
[18] = IOSE-T80 ovarian epithelial cell cytotoxicity, dose response, cytotoxicity control for PAX8 inhibitor project, plate reader, dry powder samples (AID 743045); type: functional, cell-based
[19] = LGR2 antagonists, dose response, cell-based, HEK293, CRE-luciferase reporter, cherry pick, set 2 (AID 743343); type: functional;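 note: transfected cells were stimulated with diluted bursicon conditioned medium after compound addition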
[20] = MC4R antagonists, dose response, counter-screen for LGR2 antagonist project, cell-based, plate reader, cherry pick (AID 743444); type: functional;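 note: transfected HEK 293 cells stimulated with alpha-MSH peptide; potency of inhibitors of the alpha-MSH evoked signal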
[21] = non-specific cell cytotoxicity, dose response, cytotoxicity control for PAX8 inhibitor project, plate reader, dry powder samples (AID 743021); type: functional, cell-based
[22] = IGROV1 ovarian cancer cell cytotoxicity, dose response, PAX8 inhibitor project, plate reader, dry powder samples (AID 743043); type: functional, cell-based; conditions: IGROV-1
[23] = NIH:OVCAR-3 ovarian cancer cell cytotoxicity, dose response, PAX8 inhibitor project, plate reader, dry powder samples (AID 743044); type: functional, cell-based
[24] = cytotoxicity in OVCAR8 ovarian cancer cells, dose response, PAX8 project, cell-based, plate reader, dry powder samples (AID 743197); type: functional; conditions: OVCAR-8
[25] = inhibitors of clade B AD8 Env fusion, dose response, cell-based, cherry-pick (AID 652062); type: functional;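 note: luciferase signal from cell-cell fusion driven by HIV-1 clade B AD8 Env; potency is for inhibitors of fusion seen as a drop in luminescence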
[26] = A549 cell cytotoxicity, dose response, cytotoxicity control, plate reader, cherry-pick, antagonist series (AID 743412); type: functional, cell-based
[27] = target: Paired box protein Pax-8 (Homo sapiens, UniProt Q06710); assay: inhibitors of PAX8-driven TPO luciferase reporter, dose response, RMG-I cells, cherry-pick (AID 687027); type: functional, cell-based;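 note: luciferase reporter driven by Pax8 target thyroperoxidase promoter measured by SteadyGlo luminescence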
[28] = HEK293 cell cytotoxicity, dose response, cytotoxicity control, plate reader, cherry-picked samples (AID 743446); type: functional, cell-based
[29] = P. falciparum Dd2 growth inhibitors, dose response, SYBR Green, dry powder samples (AID 1159566); type: functional, cell-based;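 note: potency for growth inhibition with lower SYBR green DNA signal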
[30] = P. falciparum ATP4 D1247Y mutant growth inhibitors, dose response, NITD609-resistant line, SYBR Green, dry powder (AID 1159571); type: functional, cell-based;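 note: parasites synchronized at ring stage by sorbitol before testing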
[31] = P. falciparum 3D7-ScDHODH growth inhibitors, dose response, SYBR Green, dry powder samples (AID 1159570); type: functional, cell-based;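 note: parasite growth measured after 72 hours of compound exposure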
[32] = HepG2 cell cytotoxicity, dose response, cytotoxicity control, plate reader, cherry-pick, antagonist series (AID 743416); type: functional, cell-based
[33] = HepG2 cell cytotoxicity, dose response, cytotoxicity control, plate reader, dry powder samples (AID 1159569); type: functional, cell-based;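 note: inhibitor potency with signal falling toward the positive control level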
[34] = HepG2 cell cytotoxicity, dose response, cytotoxicity control, cherry-picked samples (AID 1159577); type: functional, cell-based
[35] = P. falciparum Dd2 growth inhibitors, dose response, SYBR Green, cherry-picked samples (AID 1159567); type: functional, cell-based
[36] = A2780 ovarian cancer cell cytotoxicity, dose response, cytotoxicity control, plate reader, dry powder samples (AID 743046); type: functional, cell-based
[37] = HeLa 4N DNA content increase, dose response, cell-based, IC50 (AID 1117351); type: functional
[38] = HeLa 2N DNA content increase, dose response, cell-based, IC50 (AID 1117349); type: functional
[39] = target: Cytochrome P450 2D6 (Homo sapiens, UniProt P10635);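 note: CYP2D6 member of a cytochrome P450 panel assay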
Sequence of Cytochrome P450 2D6 (P10635 whole entry): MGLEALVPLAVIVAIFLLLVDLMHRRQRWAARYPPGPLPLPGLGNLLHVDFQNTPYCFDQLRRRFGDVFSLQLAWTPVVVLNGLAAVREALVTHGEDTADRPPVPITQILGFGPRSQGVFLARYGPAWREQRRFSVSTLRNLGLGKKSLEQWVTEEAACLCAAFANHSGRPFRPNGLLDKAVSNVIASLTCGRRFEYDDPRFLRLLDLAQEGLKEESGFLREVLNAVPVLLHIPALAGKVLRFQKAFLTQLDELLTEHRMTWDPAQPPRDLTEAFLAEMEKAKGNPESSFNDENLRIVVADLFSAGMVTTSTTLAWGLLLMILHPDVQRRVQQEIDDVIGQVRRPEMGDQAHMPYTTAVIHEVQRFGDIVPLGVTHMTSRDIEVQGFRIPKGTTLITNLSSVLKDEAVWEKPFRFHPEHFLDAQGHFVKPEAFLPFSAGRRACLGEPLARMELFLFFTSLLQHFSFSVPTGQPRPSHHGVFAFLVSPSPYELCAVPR

Sequence of Paired box protein Pax-8 (Q06710 whole entry): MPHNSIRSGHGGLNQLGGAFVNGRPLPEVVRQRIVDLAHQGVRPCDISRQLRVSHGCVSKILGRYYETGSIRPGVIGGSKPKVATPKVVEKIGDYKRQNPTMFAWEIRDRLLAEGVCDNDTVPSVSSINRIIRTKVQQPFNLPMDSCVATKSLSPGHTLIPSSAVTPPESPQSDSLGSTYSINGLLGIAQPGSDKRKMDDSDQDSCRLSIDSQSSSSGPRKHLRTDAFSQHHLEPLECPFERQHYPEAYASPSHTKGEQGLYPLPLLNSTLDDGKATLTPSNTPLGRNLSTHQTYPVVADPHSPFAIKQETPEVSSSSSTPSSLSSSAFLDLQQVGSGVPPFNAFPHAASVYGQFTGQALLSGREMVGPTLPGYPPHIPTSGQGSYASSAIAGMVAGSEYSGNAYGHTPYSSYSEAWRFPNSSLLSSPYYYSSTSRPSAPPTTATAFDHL
Sequence of RNA-editing ligase 1, mitochondrial (P86926 whole entry): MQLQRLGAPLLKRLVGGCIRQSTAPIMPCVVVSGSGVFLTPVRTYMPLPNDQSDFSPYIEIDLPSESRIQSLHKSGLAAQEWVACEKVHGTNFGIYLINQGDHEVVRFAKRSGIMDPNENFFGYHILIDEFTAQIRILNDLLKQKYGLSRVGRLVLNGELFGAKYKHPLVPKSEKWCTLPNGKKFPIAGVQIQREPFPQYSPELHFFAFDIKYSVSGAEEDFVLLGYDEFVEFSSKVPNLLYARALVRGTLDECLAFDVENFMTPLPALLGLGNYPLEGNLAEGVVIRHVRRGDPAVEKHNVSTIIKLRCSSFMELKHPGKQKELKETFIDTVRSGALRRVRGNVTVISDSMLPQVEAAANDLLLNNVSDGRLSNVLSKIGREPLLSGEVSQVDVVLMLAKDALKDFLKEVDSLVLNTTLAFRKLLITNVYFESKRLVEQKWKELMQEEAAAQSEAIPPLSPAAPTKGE
Sequence of Mitogen-activated protein kinase 10 (P53779 whole entry): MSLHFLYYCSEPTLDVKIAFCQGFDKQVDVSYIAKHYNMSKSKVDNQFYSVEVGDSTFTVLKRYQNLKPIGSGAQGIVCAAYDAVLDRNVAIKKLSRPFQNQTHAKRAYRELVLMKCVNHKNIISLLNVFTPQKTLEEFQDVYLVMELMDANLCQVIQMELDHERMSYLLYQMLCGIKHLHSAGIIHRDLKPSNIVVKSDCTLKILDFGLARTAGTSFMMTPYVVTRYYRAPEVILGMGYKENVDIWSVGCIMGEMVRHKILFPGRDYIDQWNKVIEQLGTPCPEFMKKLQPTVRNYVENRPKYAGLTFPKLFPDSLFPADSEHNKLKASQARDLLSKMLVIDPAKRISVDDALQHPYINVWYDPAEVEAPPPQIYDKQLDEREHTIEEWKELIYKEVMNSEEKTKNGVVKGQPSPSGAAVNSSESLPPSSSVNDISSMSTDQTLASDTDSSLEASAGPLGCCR
Sequence of Long-chain-fatty-acid--AMP ligase FadD28 (P9WQ59 whole entry): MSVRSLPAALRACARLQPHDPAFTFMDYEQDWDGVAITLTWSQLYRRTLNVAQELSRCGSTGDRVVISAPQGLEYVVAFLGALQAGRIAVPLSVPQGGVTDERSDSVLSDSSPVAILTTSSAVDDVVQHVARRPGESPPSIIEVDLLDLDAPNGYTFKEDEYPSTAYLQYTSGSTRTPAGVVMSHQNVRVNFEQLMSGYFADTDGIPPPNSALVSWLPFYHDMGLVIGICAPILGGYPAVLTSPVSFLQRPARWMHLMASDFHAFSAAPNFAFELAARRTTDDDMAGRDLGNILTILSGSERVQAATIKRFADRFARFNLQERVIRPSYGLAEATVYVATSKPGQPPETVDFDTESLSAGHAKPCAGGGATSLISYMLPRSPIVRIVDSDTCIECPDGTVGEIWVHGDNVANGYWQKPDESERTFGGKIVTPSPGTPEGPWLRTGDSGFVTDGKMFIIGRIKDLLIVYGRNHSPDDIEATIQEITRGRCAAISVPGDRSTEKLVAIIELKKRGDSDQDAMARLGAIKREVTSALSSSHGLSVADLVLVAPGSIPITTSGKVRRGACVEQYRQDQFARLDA
Sequence of Genome polyprotein (Q2Q167 whole entry): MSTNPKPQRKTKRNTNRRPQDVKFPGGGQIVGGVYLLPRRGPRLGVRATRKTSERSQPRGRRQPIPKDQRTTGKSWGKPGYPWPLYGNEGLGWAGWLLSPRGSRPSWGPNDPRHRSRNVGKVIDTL
Sequence of Luciferin 4-monooxygenase (P08659 whole entry): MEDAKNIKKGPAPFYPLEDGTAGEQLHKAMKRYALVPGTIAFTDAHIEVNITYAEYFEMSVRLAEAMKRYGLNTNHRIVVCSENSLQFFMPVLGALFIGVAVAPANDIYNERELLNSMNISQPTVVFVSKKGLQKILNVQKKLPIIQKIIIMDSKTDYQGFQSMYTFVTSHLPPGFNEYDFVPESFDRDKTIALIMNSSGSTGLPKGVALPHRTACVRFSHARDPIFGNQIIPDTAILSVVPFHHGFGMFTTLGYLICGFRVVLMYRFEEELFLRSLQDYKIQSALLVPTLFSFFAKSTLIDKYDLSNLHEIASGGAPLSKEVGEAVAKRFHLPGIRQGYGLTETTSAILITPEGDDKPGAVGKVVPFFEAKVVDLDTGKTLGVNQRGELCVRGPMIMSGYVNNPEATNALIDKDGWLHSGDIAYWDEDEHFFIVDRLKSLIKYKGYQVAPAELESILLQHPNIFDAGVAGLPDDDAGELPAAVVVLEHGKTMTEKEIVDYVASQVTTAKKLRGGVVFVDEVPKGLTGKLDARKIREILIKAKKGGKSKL
Sequence of Cytochrome P450 2C19 (P33261 whole entry): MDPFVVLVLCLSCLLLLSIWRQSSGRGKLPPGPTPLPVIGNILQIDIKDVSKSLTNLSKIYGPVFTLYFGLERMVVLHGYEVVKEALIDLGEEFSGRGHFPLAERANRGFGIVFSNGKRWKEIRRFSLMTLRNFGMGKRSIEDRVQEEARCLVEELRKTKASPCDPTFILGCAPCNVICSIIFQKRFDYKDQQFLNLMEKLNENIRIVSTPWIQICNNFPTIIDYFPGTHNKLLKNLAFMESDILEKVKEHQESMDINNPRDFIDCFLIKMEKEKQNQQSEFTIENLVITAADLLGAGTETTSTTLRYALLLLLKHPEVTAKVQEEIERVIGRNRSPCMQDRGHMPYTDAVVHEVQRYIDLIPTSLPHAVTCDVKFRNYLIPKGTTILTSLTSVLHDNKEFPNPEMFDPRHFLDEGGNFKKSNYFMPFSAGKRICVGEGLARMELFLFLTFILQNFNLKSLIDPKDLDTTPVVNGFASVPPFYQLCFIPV
Sequence of Kallikrein-7 (P49862 whole entry): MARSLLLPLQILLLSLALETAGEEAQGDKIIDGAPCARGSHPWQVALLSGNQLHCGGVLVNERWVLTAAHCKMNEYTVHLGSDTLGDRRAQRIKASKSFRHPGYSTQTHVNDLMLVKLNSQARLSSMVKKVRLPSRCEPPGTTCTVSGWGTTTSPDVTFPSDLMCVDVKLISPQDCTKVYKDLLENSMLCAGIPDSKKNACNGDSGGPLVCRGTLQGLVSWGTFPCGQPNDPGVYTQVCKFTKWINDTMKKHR
Sequence of Cytochrome P450 3A4 (P08684 whole entry): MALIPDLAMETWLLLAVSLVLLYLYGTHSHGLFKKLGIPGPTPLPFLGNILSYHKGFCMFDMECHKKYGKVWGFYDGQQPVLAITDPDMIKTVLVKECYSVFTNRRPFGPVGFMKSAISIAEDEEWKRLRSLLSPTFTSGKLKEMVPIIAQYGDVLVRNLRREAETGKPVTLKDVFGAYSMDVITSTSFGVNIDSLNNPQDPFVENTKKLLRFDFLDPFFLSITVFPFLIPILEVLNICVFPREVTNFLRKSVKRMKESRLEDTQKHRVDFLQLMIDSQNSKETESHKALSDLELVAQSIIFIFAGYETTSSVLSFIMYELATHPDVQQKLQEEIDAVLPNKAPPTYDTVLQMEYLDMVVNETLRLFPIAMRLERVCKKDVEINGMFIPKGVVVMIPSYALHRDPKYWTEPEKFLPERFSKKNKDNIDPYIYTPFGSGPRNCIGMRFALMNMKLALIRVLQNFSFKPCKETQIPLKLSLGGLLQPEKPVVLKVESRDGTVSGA
Sequence of fMet-Leu-Phe receptor (P21462 whole entry): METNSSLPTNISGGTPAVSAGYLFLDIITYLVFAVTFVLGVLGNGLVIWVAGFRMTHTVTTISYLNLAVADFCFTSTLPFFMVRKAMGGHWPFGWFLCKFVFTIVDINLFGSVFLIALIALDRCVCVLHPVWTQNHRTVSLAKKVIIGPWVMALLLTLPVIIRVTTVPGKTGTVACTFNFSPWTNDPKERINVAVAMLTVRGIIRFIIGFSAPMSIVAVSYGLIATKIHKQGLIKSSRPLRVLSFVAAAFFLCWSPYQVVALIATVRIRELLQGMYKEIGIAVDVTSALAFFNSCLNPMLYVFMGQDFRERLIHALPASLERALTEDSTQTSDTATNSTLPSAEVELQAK

COc1cccc(NC(=O)CCCn2c(=O)[nH]c3ccccc3c2=O)c1
IC50 [1]: 48.1 µM (not active)

O=c1c2ccccc2cnn1-c1ccc(Cl)cc1
EC50 [2]: > 67.5 µM (inactive)
EC50 [3]: > 67.5 µM (inactive)

COc1cc(C2C(C(=O)c3cccs3)=C(O)C(=O)N2Cc2ccco2)cc(OC)c1OC (stereo not given)
AC50 [4]: 25.1 µM (inconclusive)
AC50 [5]: 14.1 µM (inconclusive)
AC50 [6]: 25.1 µM (inconclusive)
AC50 [7]: 17.8 µM (inconclusive)
Ki [8]: 27 µM (inactive)

Sc1nnc(-c2ccc(Br)cc2)n1-c1ccccc1.[Zn+2]
IC50 [9]: 20.2 µM (inactive)

CCCCC(=O)Nc1ncc(Br)s1
IC50 [1]: 54.9 µM (not active)

Sc1nncn2c1cc1oc3ccccc3c12
IC50 [10]: > 49.8 µM (not active)

CCC(NC(=O)Cc1c(C)c2c(cc(C)c3c(C)c(C)oc32)oc1=O)C(=O)O (stereo not given)
EC50 [11]: > 69.5 µM (inactive)

O=C(C=Cc1ccccc1)CC(c1ccccc1)N1CCOCC1 (stereo not given)
AC50 [12]: 10.7 µM (active)
IC50 [13]: 10.9 µM (active)

C/N=c1\scc(-c2ccccc2F)n1/N=C/c1ccc(O)c(O)c1O
AC50 [14]: 32 µM (inactive)
EC50 [15]: 1.68 µM (active)
EC50 [2]: > 67.5 µM (inactive)
IC50 [16]: 25.8 µM (active)
EC50 [17]: 2.46 µM (active)
EC50 [3]: > 67.5 µM (inactive)

COc1ccccc1C#Cc1ccc([C@H]2[C@H](C#N)N(C(=O)C3CCCC3)[C@H]2CO)cc1
AC50 [18]: 21.8 µM (active)
AC50 [19]: 9.13 µM (active)
AC50 [20]: 3.59 µM (active)
AC50 [21]: 19.8 µM (active)
AC50 [22]: 32.2 µM (active)
AC50 [23]: 8.21 µM (active)
AC50 [24]: 10.6 µM (active)
AC50 [25]: 9.51 µM (active)
AC50 [26]: > 52 µM (inactive)
AC50 [27]: 4.38 µM (active)
AC50 [12]: 4.17 µM (active)
AC50 [28]: > 52 µM (inactive)

C[C@@H]1CN([C@@H](C)CO)C(=O)c2c(c3ccccc3n2C)-c2ccccc2CO[C@@H]1CN(C)S(=O)(=O)c1ccc(C(F)(F)F)cc1
AC50 [19]: 51.6 µM (active)
AC50 [29]: 1.63 µM (active)
AC50 [20]: 54.3 µM (active)
AC50 [30]: 2.21 µM (active)
AC50 [31]: 2.24 µM (active)
AC50 [32]: 21.9 µM (active)
AC50 [22]: 58.4 µM (active)
AC50 [33]: 20.9 µM (active)
AC50 [34]: > 39 µM (inactive)
AC50 [26]: 22.3 µM (active)
AC50 [27]: 6.8 µM (active)
AC50 [35]: 2.57 µM (active)
AC50 [28]: 34.5 µM (active)

COc1ccc(S(=O)(=O)N2CCCCN3[C@H](CO)[C@@H](c4ccc(C#CC(C)C)cc4)[C@H]3C2)cc1
AC50 [36]: 27.1 µM (active)
AC50 [23]: 34 µM (active)
AC50 [24]: > 70 µM (inactive)
AC50 [27]: 12 µM (active)

COC(=O)c1nc(Cl)c(Cl)nc1N
IC50 [37]: 0.511 µM (active)
IC50 [38]: 0.334 µM (active)

COc1cccc(CN(C)C(=O)[C@H]2O[C@@H](n3cnc4c(=O)[nH]c(N)nc43)[C@H](O)[C@@H]2O)c1
IC50 [9]: > 96.6 µM (inactive)

O=C(C1CCC1)N1C[C@@H]2N[C@H](C1)[C@@H]2c1ccc(-c2ccccc2F)cc1
AC50 [29]: 2.5 µM (active)
AC50 [30]: 3.47 µM (active)
AC50 [31]: 3.03 µM (active)
AC50 [33]: 19.5 µM (active)
AC50 [35]: 2.24 µM (active)

CCCCc1ccc2[nH]c(NC(=O)OC)nc2c1 [PARBENDAZOLE]
AC50 [39]: 1.58 µM (inconclusive)
IC50 [37]: 0.0106 µM (active)
IC50 [38]: 0.0104 µM (active)
